The text below walks through data of patent US8778913B2, “Antimicrobial compositions for treating microbial infections” (priority 2006, dated 2014).

Each structure is given as a SMILES string. Where two headings read alike, the source gives them in different places.

The test system of data set [1] is staphyloxanthin biosynthesis. The note with it: earlier report; cited from earlier work.
Data set [2] has as its system S. aureus. Nature of the data set: Singlet oxygen susceptibility assay. It is filed as cell-based, Staphylococcus aureus. Here is the method: (§1) Tests for susceptibility to oxidants were performed either in PBS (S. aureus) or THB (S. pyogenes). Hydrogen peroxide (H2O2) was added to 1.5% final concentration, […] bacteria incubated at 37° C. for 1 h, then 1,000 U/ml of catalase (Sigma) added to quench residual H2O2. Dilutions were plated on THA for enumeration of surviving cfu. For the singlet oxygen assay, 10^8 S. aureus or 4×10^8 S. pyogenes were incubated at 37° C. in individual wells of a 24-well culture plate in the presence or absence of 1-6 μg/ml methylene blue and situated exactly 10 cm from a 100-watt light source. Bacterial viability was assessed after 1-3 h by plating dilutions on THA.

Data set [3] concerns S. aureus. Nature of the data set: Whole blood killing assay. It is filed as cell-based, Staphylococcus aureus. Here is the method:
Bacteria were washed twice in PBS, diluted to an inoculum of 10^4 cfu in 25 μl PBS, and mixed with 75 μl of freshly drawn human or mouse blood in heparinized tubes. The tubes were incubated at 37° C. for 4 h with agitation, at which time dilutions were plated on THA for enumeration of surviving cfu.

The test system of data set [4] is staphyloxanthin biosynthesis. Nature of the data set: S. aureus pigment (staphyloxanthin) formation. It is filed as cell-based, Staphylococcus aureus. The conditions noted are these: for IC50: Staphylococcus aureus. From the text: (§2) Wild-type S. aureus strain (Pig1), isolated from the skin of a child with atopic dermatitis. Streptococcus pyogenes strain 5448 is a well-characterized serotype M1T1 clinical isolate. CD1 and C57Bl/6 mice were purchased from Charles River. The gp91^Phos−/− mice were bred at the Veteran's Administration Medical Center, San Diego and maintained on trimethoprim/sulfamethoxazole prophylaxis until 3 d prior to experiments. S. aureus and S. pyogenes were propagated in Todd-Hewitt broth (THB) or on THB agar (Difco, Detroit, Mich.). Unless otherwise indicated, all experiments were performed with bacteria derived from S. aureus 36-48 h stationary phase cultures or S. pyogenes 24 h stationary phase cultures, a point when pigmentation phenotypes were readily apparent.
A series of known SQS inhibitors were tested for inhibition of staphyloxanthin biosynthesis.

In data set [5] the test system is S. aureus. The experiment in a line: Systemic (intraperitoneal) S. aureus challenge in mice. It is filed as in vivo, mouse. Here is the method:
Here cfu counts are measured in the kidneys.
0/6 mice treated with the compound of Formula III had detectable bacteria in either organ.
Given the in vitro abilities of formula III treatment to increase S. aureus susceptibility to oxidants and blood (neutrophil-mediated) clearance, in vivo testing was performed. Under intraperitoneal challenge one group of mice (n=14) was treated with […] b.i.d. (days −1, 0, 1 and 2), and a second group (n=13) with equivalent volume injections of PBS control.

Another data set relates to NCI-H460. Nature of the data set: Growth of human cell line NCI-H460. It is filed as cell-based. Here is the method: (§3) Inhibition of staphyloxanthin biosynthesis by formula III could represent a purely virulence factor-based therapy for S. aureus infection. […] However, after incubation with 100 μM formula III, the resulting non-pigmented S. aureus were ˜15-fold more susceptible to killing by 1.5% hydrogen peroxide and ˜4-fold less able to survive in freshly isolated human whole blood than were normally pigmented S. aureus treated with PBS control. As expected, formula III had no effect on the growth of three human cell lines (MCF-7, NCI-H460 and SF-268) since there only cholesterol biosynthesis is targeted, and cholesterol is generally abundant in serum (or diet).

Data set [6] relates to S. aureus. Nature of the data set: In vivo mouse model of S. aureus skin infection. Here is the method: Ten to 16 week old CD-1 or gp91^Phox−/− mice were injected subcutaneously in one flank (chosen randomly) with the bacterial test strain, and simultaneously in the opposite flank with a different strain for direct comparison. Bacterial cultures were washed, diluted and resuspended in PBS mixed 1:1 with sterile Cytodex beads (Amersham) at the specified inoculum, following an established protocol for generating localized S. aureus and S. pyogenes subcutaneous infection. Lesion size, as assessed by the maximal length×width of the developing ulcers, was recorded daily. Cumulative lesion size represents the total sum of lesion sizes from all animals in each treatment group on a given day. At day 8 (S. aureus) or day 5 (S. pyogenes), animals were euthanized, skin lesions excised, homogenized in PBS, and plated on THA for quantitative culture.

The target of data set [7] is T1, CrtM (dehydrosqualene synthase) (Staphylococcus aureus, UniProt A9JQL9).
T1 construct: made in house; host or cells: E. coli
T1 sequence (A9JQL9 1-287): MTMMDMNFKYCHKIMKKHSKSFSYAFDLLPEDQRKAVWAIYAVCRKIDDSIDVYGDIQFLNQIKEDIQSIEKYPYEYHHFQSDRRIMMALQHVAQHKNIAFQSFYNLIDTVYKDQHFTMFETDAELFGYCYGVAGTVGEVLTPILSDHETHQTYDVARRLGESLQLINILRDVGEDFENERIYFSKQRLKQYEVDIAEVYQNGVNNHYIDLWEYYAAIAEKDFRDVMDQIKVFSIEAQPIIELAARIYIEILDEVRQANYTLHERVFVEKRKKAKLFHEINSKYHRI
The experiment in a line: Recombinant CrtM enzyme inhibition. It is filed as biochemical, S. aureus. Here is the method:
A series of known SQS inhibitors were tested for inhibition of staphyloxanthin biosynthesis. […] Since Formula III (and its analogs) have been advanced through Phase II human clinical trials as cholesterol-lowering agents, the agent is clearly of potential interest as a new lead compound inhibiting staphyloxanthin virulence factor formation in S. aureus.

Data set [8] has as its system S. aureus. Nature of the data set: S. aureus growth inhibition in culture. It is filed as cell-based, Staphylococcus aureus. Here is the method: The compound of Formula III was prepared as described in Magnin et al., α-Phosphonosulfonic acids: Potent and selective inhibitors of squalene synthase, J. Med. Chem. 39 (1996) 657-660, and tested in S. aureus growth inhibition and in pigment formation.
as §2
Inhibition of staphyloxanthin biosynthesis by formula III could represent a purely virulence factor-based therapy for S. aureus infection. […]

Data set [9] relates to S. aureus. The experiment in a line: Hydrogen peroxide susceptibility assay. It is filed as cell-based, Staphylococcus aureus. The note with it: after incubation with 100 μM; vs PBS control. Here is the method:
as §1

The subject of a further data set is MCF-7. The experiment in a line: Growth of human cell line MCF-7. It is filed as cell-based. Here is the method: as §3
The test system of the next data set is SF-268. Nature of the data set: Growth of human cell line SF-268. It is filed as cell-based. Here is the method: as §3

On to `CCCC(C(=O)OCCN(CC)CC)(c1ccccc1)c1ccccc1` [SKF 525-A, 2-diethylaminoethyl-2,2-diphenyl-valerate, reference compound], for which, in [1], the “pigment formation in S. aureus (previously shown)” value was “inhibit pigment formation”. Besides, the “susceptibility to singlet oxygen killing” value in the data set with S. aureus [2] (WT S. aureus (FIG. 4b)) is “dose-dependent increase”. Also, the “effect on oxidant susceptibility of ΔCrtM mutant” value with S. aureus [2] (ΔCrtM mutant control) is recorded as “no significant effects”. Besides, the “ability of WT S. aureus to survive in human whole blood” value with S. aureus [3] (WT S. aureus (FIG. 4c)) was “decrease”. Besides, the “effect on blood survival of ΔCrtM mutant” value in the data set with S. aureus [3] (ΔCrtM mutant control) is listed as “no significant effects”. In addition, the “pigment production in WT S. aureus” value in [4] (WT strain grown in presence of agent (FIG. 4a)) is “dose-dependent decrease”.

By Ki is commonly meant a measure of affinity in units of concentration, obtained from inhibition or displacement. Consider `O=P([O-])([O-])C(CCCc1cccc(Oc2ccccc2)c1)S(=O)(=O)[O-].[K+].[K+].[K+]` (racemic) [Formula III], for which, in the data set with S. aureus [5] (0.5 mg b.i.d. days −1, 0, 1, 2, sacrifice at 72 h), the “mice with cfus below the detection threshold (kidneys)” value was 8/13. The “S. aureus bacterial counts in the kidneys vs control group” value with S. aureus [5] (0.5 mg b.i.d. days −1, 0, 1, 2, sacrifice at 72 h, P<0.001) is listed as “significantly lower”. In addition, the “mice with detectable bacteria in the spleen” value with S. aureus [5] (after 4 days (FIG. 12A)) is on record as 0/6. The “mice with detectable bacteria in the kidneys” value in the data set on S. aureus [5] (after 4 days (FIG. 12B)) was 0/6. Further, the “effect on growth of human cell line” value in the data set with NCI-H460, in the data set with MCF-7 and with SF-268 was “no effect” each time. The lesion size result with S. aureus [6] (200 μM (FIG. 9A)) and in the data set on S. aureus [6] (1000 μM (FIG. 9B)) was “major decrease” each time. For the same molecule, in the data set with S. aureus [6] (200 μM or 1000 μM), the “ill effects in mice” value is listed as “no apparent ill effects”. The IC50 in [7] (S. aureus enzyme expressed in E. coli) was 0.6 µM; in data set [4] (48 h, after 2 days at 37° C. with shaking (Table 1 title), read-out: IC50 (concentration for 50% pigment formation)) it was ~2 µM; in [4] (read-out: IC50, inhibition of staphyloxanthin biosynthesis) it was ~1 µM. Besides, the Ki in data set [7] (corresponding to the IC50) is ~0.0015 µM. The “effect on cell growth” value with S. aureus [8] (S. aureus growth inhibition) is listed as “no detectable effect”. The “effect on S. aureus growth characteristics or survival in culture” value in the data set with S. aureus [8] (up to 2 mM, through 48 hr) is given as “did not affect”. In addition, the “increase in susceptibility to killing by 1.5% hydrogen peroxide” value with S. aureus [9] is ~15 fold. Further, the “ED50, whole blood killing of S. aureus” value in the data set with S. aureus [3] (FIG. 8) is ~20 µM. For the same molecule, the “decrease in ability to survive in freshly isolated human whole blood” value with S. aureus [3] (after incubation with 100 μM, vs PBS control) is recorded as ~4 fold. The “enhancement in whole blood killing of S. aureus” value in the data set on S. aureus [3] (at 40 μM (FIG. 8)) is ~3 fold. The “effect on pigment formation” value in [4] is “potent effect”.
